Substitutions are numbered along the chain they refer to. Structures can show the parent of a compound that is named as a salt.
Assays:
[1] = target: T1, MRGPRX2-WT (wild-type MRGPRX2 receptor) (Homo sapiens, UniProt Q96LB1); assay: Primary HTS, Ca2+ mobilization (fluorescence ratio, B-score) in HEK293-Gα15 cells stably expressing wild-type MRGPRX2; assay type: cell-based; conditions: 10 μM compound
T1 construct: expressed in transfected cells
T1 sequence (Q96LB1 1-330): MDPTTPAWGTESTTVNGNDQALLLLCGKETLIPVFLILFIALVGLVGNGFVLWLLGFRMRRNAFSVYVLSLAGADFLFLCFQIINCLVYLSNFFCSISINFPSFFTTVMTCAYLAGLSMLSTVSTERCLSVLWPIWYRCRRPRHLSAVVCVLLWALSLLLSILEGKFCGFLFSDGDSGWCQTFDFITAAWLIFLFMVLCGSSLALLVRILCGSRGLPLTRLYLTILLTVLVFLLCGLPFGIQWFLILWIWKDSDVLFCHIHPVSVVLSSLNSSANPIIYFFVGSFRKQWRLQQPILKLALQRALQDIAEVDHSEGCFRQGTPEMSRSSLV
Description: (§1) We performed an experimental HTS on the Johns Hopkins Drug Library, which includes 1,811 (57%) FDA-approved drugs among 3,456 total compounds (28% of all known drugs worldwide) ([15]). We performed the HTS at the Johns Hopkins University ChemBioCORE Facility and employed HEK293-Gα15 cell lines that stably expressed MRGPRX2 protein.
(§2) We utilized 10 μM compounds (each compound was tested in triplicate) and calculated the compound effect using the signal-to-background fluorescence ratio (see Supplementary Methods).
(§3) In the HTS, we determined MRGPRX2 activation by a Ca^2+ mobilization assay that recorded a fluorescence change by utilizing a Functional Drug Screening System (FDSS 6000; Hamamatsu); we evaluated the compound effect using the calculated fluorescence ratio. We further applied the B-score normalization, which provided robust corrections for variation in fluorescence ratio ([22]).
(§4) We performed an experimental high-throughput screening (HTS) on the Johns Hopkins Drug Library (JHDL), which includes 1,811 (57%) FDA-approved drugs among 3,456 total compounds (28% of all known drugs worldwide). The remaining compounds in JHDL are catalogued in one or more of the resources below: British Approved Names (BAN); Dénominations Communes Françaises (DCF); International Nonproprietary Names (INN); Japanese Adopted Names (JAN); MI (Merck Index); National Formulary drug name (NF); and United States Accepted Names (USAN). The JHU drug library is stocked in 96 well plates at 10 mM in 100% DMSO and stored at -80 °C. We used a final concentration of 10 uM for each compound and DMSO concentration of 0.1% (tested in triplicate). […] We evaluated compound effect using the calculated fluorescence ratio. We further calculated B-scores, which are a relative potency score similar to Z scores in that they are the ratio of an adjusted raw value in the numerator to a measure of variability in the denominator.

[2] = target: T2, MRGPRX2-MUT (MRGPRX2 N62S mutation) (Homo sapiens, UniProt Q96LB1, N62S); assay: Primary HTS, Ca2+ mobilization (fluorescence ratio, B-score) in HEK293-Gα15 cells stably expressing the MRGPRX2 N62S mutation; assay type: cell-based; conditions: for B-scores (MUT): 10 μM compound, MRGPRX2-MUT (N62S) cells; for Change of B-scores (%): 10 μM
T2 construct: expressed in transfected cells
T2 sequence (Q96LB1 1-330 N62S): T1 sequence (Q96LB1 1-330) with N62S
Description: as §1, §2, §3, §4

[3] = MRGPRX2-MUT in comparison to MRGPRX2-WT cells, Supplementary Table 1
[4] = MRGPRX2-MUT versus MRGPRX2-WT cells, Supplementary Table 2
[5] = MRGPRX2-MUT in comparison to MRGPRX2-WT cells, Table 1

| Compound | B-scores (WT) ([1]; Supplementary Table 1) | B-scores (WT) ([1]; Supplementary Table 2) | B-scores (MUT) ([2]; Supplementary Table 1) | B-scores (MUT) ([2]; Supplementary Table 2) | Change of B-scores (%) [2, 3] | Change of B-scores (%) [2, 4] | B-scores (WT) ([1]; Table 1) | B-scores (MUT) ([2]; Table 1) | Change of B-scores (%) [2, 5] |
| --- | --- | --- | --- | --- | --- | --- | --- | --- | --- |
| CC(=O)c1ccc2c(c1)N(CCCN(C)C)c1ccccc1S2 [Acepromazine Maleate] | 44.01 | 44.01 | 28.97 | 28.97 | -34.19% | -34.19% | – | – | – |
| CC(=O)c1ccc2c(c1)N(CCCN(C)C)c1ccccc1S2 [Acepromazine] | – | 22.99 | – | 43.26 | – | 88.18% | – | – | – |
| CC(=O)OCC[N+](C)(C)C [Acetylcholine Chloride] | 47.11 | 47.11 | 65.23 | 65.23 | 38.45% | 38.45% | – | – | – |
| CC(=O)OCC[N+](C)(C)C [Acetylcholine] | 23.36 | 23.36 | 80.61 | 80.61 | 245.01% | 245.01% | – | – | – |
| Nc1ncnc2c1ncn2[C@@H]1O[C@H](CO)[C@@H](O)[C@H]1O [Adenosine] | 35.61 | – | 0.32 | – | -99.09% | – | – | – | – |
| CC(C)(C)NCC(O)c1ccc(O)c(CO)c1.CC(C)(C)NCC(O)c1ccc(O)c(CO)c1.O=S(=O)(O)O (stereo not drawn) [Albuterol sulfate] | – | 12.09 | – | 2.96 | – | -75.51% | – | – | – |
| CCCCC(CC)CNC(=N)NC(=N)NCCCCCCNC(=N)NC(=N)NCC(CC)CCCC (stereo not drawn) [Alexidine Hydrochloride] | 30.77 | – | 1.68 | – | -94.54% | – | 30.77 | 1.68 | -94.54% |
| CN(C)CCc1c[nH]c2ccc(CS(=O)(=O)N3CCCC3)cc12 [Almotriptan] | 18.49 | – | 2.98 | – | -83.88% | – | – | – | – |
| CCCCC[C@H](O)/C=C/[C@H]1[C@H](O)CC(=O)[C@@H]1CCCCCCC(=O)O [Alprostadil] | 42.04 | – | 11.08 | – | -73.65% | – | – | – | – |
| CN(C)CCC=C1c2ccccc2CCc2ccccc21 [Amitriptyline hydrochloride] | – | 16.31 | – | 1.83 | – | -88.77% | – | – | – |
| CCOC(=O)C1=C(COCCN)NC(C)=C(C(=O)OC)C1c1ccccc1Cl (stereo not drawn) [Amlodipine Besylate] | 31.57 | – | 3.87 | – | -87.76% | – | – | – | – |
| COC(=O)C1=CCCN(C)C1 [Arecoline Hydrobromide] | 28.78 | – | 58.08 | – | 101.79% | – | – | – | – |
| CN1[C@@H]2CC[C@H]1C[C@@H](OC(=O)C(CO)c1ccccc1)C2 (stereo partly drawn) [Atropine Sulfate Monohydrate] | 24.16 | 24.16 | 0.90 | 0.9 | -96.27% | -96.27% | – | – | – |
| CN1[C@@H]2CC[C@H]1C[C@@H](OC(=O)C(CO)c1ccccc1)C2 (stereo partly drawn) [Atropine Sulfate] | 41.43 | 41.43 | – | -0.13 | -100.31% | -100.31% | – | – | – |
| CN1[C@@H]2CC[C@H]1C[C@@H](OC(=O)C(CO)c1ccccc1)C2 (stereo partly drawn) [Atropine] | 18.59 | 18.59 | – | -0.95 | -105.08% | -105.08% | – | – | – |
| CN1CCCC(n2nc(Cc3ccc(Cl)cc3)c3ccccc3c2=O)CC1 (stereo not drawn) [Azelastine Hydrochloride] | 36.21 | – | 3.47 | – | -90.42% | – | 36.21 | 3.47 | -90.42% |
| CN1[C@@H]2CC[C@H]1C[C@@H](OC(c1ccccc1)c1ccccc1)C2 [Benztropine Methanesulfonate] | 26.25 | – | 2.81 | – | -89.29% | – | – | – | – |
| CN1[C@@H]2CC[C@H]1C[C@@H](OC(c1ccccc1)c1ccccc1)C2 [Benztropine] | 21.42 | – | 1.35 | – | -93.68% | – | – | – | – |
| CC(C[N+](C)(C)C)OC(N)=O (stereo not drawn) [Bethanechol Chloride] | 19.27 | – | 37.55 | – | 94.89% | – | – | – | – |
| CN(C)CCOC(c1ccccc1)c1ccc(Br)cc1.Cl (stereo not drawn) [Bromazine hydrochloride] | – | 11.37 | – | -0.05 | – | -100.41% | – | – | – |
| CN(C)CCC(c1ccc(Br)cc1)c1ccccn1 (stereo not drawn) [Brompheniramine] | 18.22 | 18.22 | 0.64 | 0.64 | -96.48% | -96.48% | 18.22 | 0.64 | -96.48% |
| C[N+](C)(C)CCOC(N)=O [Carbachol] | 42.55 | 42.55 | 63.57 | 63.57 | 49.41% | 49.41% | – | – | – |
| CN(C)CCOC(c1ccc(Cl)cc1)c1ccccn1 (stereo not drawn) [Carbinoxamine Maleate] | 38.93 | – | 1.49 | 1.49 | -96.18% | -94.84% | 38.93 | 1.49 | -96.18% |
| CN(C)CCOC(c1ccc(Cl)cc1)c1ccccn1 (stereo not drawn) [Carbinoxamine] | – | 11.13 | – | 0.12 | – | -98.93% | – | – | – |

From publication PMC9635925, “Biological screening of a unique drug library targeting MRGPRX2” (Frontiers in Immunology, 2022)
